Laboratory results as given in patent US11472772B2, “S1P3 antagonists” (Teva Pharmaceutical Industries, Ltd., priority 2013, dated 2022).

Columns and labels:
Type in all cases: in vivo, rat
[1] = system: quisqualic acid lesioned rats; experiment: Quisqualic acid (QUIS) injection in Nucleus Basalis Magnocellularis of rats: immunohistochemistry for neurodegeneration and neuroinflammation (ChAT, GFAP, OX42)
From the text: (§1) The efficacy of the compounds of the invention on neurodegeneration and neuroinflammation can be evaluated with two different methodological approaches aimed to reproduce some pathological features of Alzheimer's disease: • 1) the excitotoxic insult (quisqualic acid—QUIS) in the Nucleus Basalis Magnocellularis (NBM), characterized by severe neurodegeneration of cholinergic neurons along with significant neuroinflammation. • 2) the β-amyloid peptide 25-35 (Aβ25-35) injection in NBM of rats, inducing a significant glia reaction around Aβ25-35 deposits with modest toxicity on cholinergic neurons. • Readouts are based on immunochemical analysis and are: count of cholinergic neurons (ChAT-positive), astrocytes (GFAP-positive) and microglia (OX-42 or Iba-1 positive). The analysis is performed by two different approaches, the visual scoring (blind) and the digital platform APERIO®.
Three-month old male Wistar rats (Harlan, Milan, Italy) weighing 230-250 g were used. The rats were housed in macrolon cages with ad lib food and water and maintained on a 12 h light/dark cycle at 23° C. room temperature (RT). All experiments were carried out according to the guidelines of the European Community's Council for Animal Experiments (86/609/EEC). Efforts were made to minimize the number of animals used and their suffering.
The quisqualic acid (Sigma Chemical Co., Milan, Italy; dissolved in phosphate buffer at the concentration of 0.12 M volume 0.5 μl) or 10 ug of ABeta(25-35) peptide (Bachem) dissolved PBS at the concentration of 10 μg/μl and aggregate at 37° for 2 h before injection volume 1 μl) was injected by means of an Hamilton microsyringe into the right NBM under chloral hydrate anaesthesia at the following stereotaxic coordinates: AP=−0.2, L=−2.8 from bregma and H=7 from the dura (Paxinos and Watson, 1982, Casamenti et al., 1998). Controlateral NBM were injected with PBS solution. The study was performed for 7 days after surgery. […]

[2] = system: Abeta(25-35) lesioned rats; experiment: Abeta(25-35) peptide injection in NBM of rats: GFAP staining; conditions: 30 mg/kg, Kruskall-Wallis
From the text: as §1
(§2) Three-month old male Wistar rats (Harlan, Milan, Italy) weighing 230-250 g were used. The rats were housed in macrolon cages with ad lib food and water and maintained on a 12 h light/dark cycle at 23° C. room temperature (RT). All experiments were carried out according to the guidelines of the European Community's Council for Animal Experiments (86/609/EEC). Efforts were made to minimize the number of animals used and their suffering. […]

[3] = system: quisqualic acid lesioned rats; experiment: Object Recognition Test (ORT) on quisqualic acid lesioned rats; conditions: exploration time of familiar vs novel object
Protocol: QUIS-treated animals can also undergo the Object Recognition Test (ORT, measuring episodic memory) or other behavioural tests to measure the improvement of cognitive functions upon treatment with a compound of the invention.
as §2
Object recognition was evaluated according to Ennanceur and Delacour (1988) and Scali et al., (1997). […] The times spent exploring the familiar (F) and the new object (N) were recorded separately and the difference between the two exploration times was taken. […]

**Q.** For CCCC(C(=O)Nc1cnc(Br)cn1)c1cncc(Br)c1 (stereo not drawn) [Example 33, 2-(5-Bromo-pyridin-3-yl)-pentanoic acid (5-bromo-pyrazin-2-yl)-amide], which “Neuroprotective effect, rat NBM ChAT-positive neuron counts (APERIO)” value ([1]; 30 and 60 mg/Kg/day p.o., QUIS lesioned rats) is on record?
**A.** The value was “strong neuroprotective effects”.

**Q.** And the “Anti-neuroinflammatory effect on astrocytes, GFAP reactivity” value ([1]; 30 and 60 mg/Kg/day, QUIS lesioned rats)?
**A.** The value was “strong activity on GFAP reactivity”.

**Q.** What about the “Anti-neuroinflammatory and neuroprotective activity in the in vivo assays (FIGS. 1-3)” value ([1]; doses ranging 10 to 60 mg/kg) of the same compound?
**A.** Its value is “anti-neuroinflammatory and neuroprotective activity”.

**Q.** And the “GFAP-positive cells, quantitative analysis by visual scoring” value [2]?
**A.** The value was “p<0.05 vs vehicle group”.

**Q.** And the “Cognitive functions in ORT (episodic memory)” value [3]?
**A.** Its value is “improved cognitive functions”.

**Q.** What about the “Cognitive functions in ORT (episodic memory)” value ([3]; listed as example 33) of the same compound?
**A.** Its value is “significantly ameliorates cognitive functions”.
